# Measured values published in patent publication US12109220B2, “Compositions for use in the reduction of nociception in children” (SOCIETE DES PRODUITS NESTLE S.A., priority 2017, dated 2024).
# Entries after “also recorded” stand apart in the source; their conditions may differ.
# Target: GPR35 (Homo sapiens, UniProt Q9HC97)
# Assay: PathHunter β-Arrestin assay of GPR35 activation (DiscoverX)
# Type: cell-based
# Conditions: for activation of GPR35 (in words): single HMOs, highest concentration tested 10 mM; for EC50: cell based β-arrestin recruitment, 3x dilutions from 10 mM, duplicate
# Experimental: Six human milk oligosaccharides (LNnT, LNT, 2-FL, diFL, 6′ SL and 3-SL) were sreened for their ability to activate the GPR35 receptor in an in vitro assay.
# The GPR35 cell line was expanded from frozen stocks and cultured according to standard procedures. Cells were seeded in a total volume of 20 μL into white walled, 384-well microplates and incubated at 37° C. for the appropriate time prior to testing. All testing was done in duplicate.
# HMO samples were shipped to DiscoverX as concentrated stocks in Phosphate Buffered saline. On the test day, a 5× compound working intermediate was prepared in PBS. Five μL of 5× sample was added to cells and incubated at room temperature for 3 to 5 hours.
# Assay signal was generated through a single addition of 12.5 μL (50% v/v) of PathHunter Detection reagent cocktail, followed by one-hour incubation at room temperature. Microplates were read following signal generation with a PerkinElmer Envision™ instrument for chemiluminescent signal detection.
# Zaprinast (which is known to be an activator of GPR35) was used as positive control.
# Percentage activity was calculated using the following formula: % Activity=100%×(mean RLU of test sample−mean RLU of vehicle control)/(mean MAX control ligand−mean RLU of vehicle control).
# Dose-responses were generated by iterative 3× dilutions of the highest concentration tested (10 mM).
# The samples were diluted in 1×PBS (pH ˜7) at 5× concentrations and sent to DiscoverX. The GPR35 activation assay was performed as described in Example 2.
# Sequence of GPR35 (Q9HC97 whole entry): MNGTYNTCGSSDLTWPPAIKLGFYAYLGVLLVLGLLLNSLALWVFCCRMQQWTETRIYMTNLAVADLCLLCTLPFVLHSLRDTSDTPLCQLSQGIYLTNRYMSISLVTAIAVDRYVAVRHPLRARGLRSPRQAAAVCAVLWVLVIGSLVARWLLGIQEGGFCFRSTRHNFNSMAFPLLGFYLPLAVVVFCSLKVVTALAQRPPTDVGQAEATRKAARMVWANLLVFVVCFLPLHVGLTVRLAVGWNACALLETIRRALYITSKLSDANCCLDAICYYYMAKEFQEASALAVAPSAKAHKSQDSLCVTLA
# Sequence of GPR35 (P32121 whole entry partner): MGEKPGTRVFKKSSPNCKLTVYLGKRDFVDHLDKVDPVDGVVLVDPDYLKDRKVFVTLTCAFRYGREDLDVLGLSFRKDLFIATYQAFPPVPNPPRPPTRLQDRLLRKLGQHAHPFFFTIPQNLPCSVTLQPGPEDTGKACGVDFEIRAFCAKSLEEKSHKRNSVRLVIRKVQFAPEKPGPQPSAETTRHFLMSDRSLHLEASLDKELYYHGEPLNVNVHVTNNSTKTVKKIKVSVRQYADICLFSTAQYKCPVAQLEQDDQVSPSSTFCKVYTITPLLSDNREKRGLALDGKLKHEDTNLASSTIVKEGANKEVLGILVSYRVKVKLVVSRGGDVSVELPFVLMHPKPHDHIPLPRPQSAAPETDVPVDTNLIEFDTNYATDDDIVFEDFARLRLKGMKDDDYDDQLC
Compound,activation of GPR35 (in words),activation of GPR35 (in words) (listed as 3-SL),EC50,activation of GPR35 (in words) (listed as difucosyllactose)
"CC(=O)N[C@H]1[C@H](O[C@H]2[C@@H](O)[C@@H](CO)O[C@@H](O[C@H]3[C@H](O)[C@@H](O)C(O)O[C@@H]3CO)[C@@H]2O)O[C@H](CO)[C@@H](O[C@@H]2O[C@H](CO)[C@H](O)[C@H](O)[C@H]2O)[C@@H]1O (mixture of isomers) [LNnT, lacto-N-neotetraose]",No activation; also recorded: do not activate,,,
"CC(=O)N[C@H]1[C@H]([C@H](O)[C@H](O)CO)O[C@@](O[C@H]2[C@@H](O)[C@@H](CO)O[C@@H](O[C@H]3[C@H](O)[C@@H](O)C(O)O[C@@H]3CO)[C@@H]2O)(C(=O)O)C[C@@H]1O (stereo partly shown) [3SL, 3′-sialyllactose]",No activation,do not activate,,
"CC(=O)N[C@H]1[C@H]([C@H](O)[C@H](O)CO)O[C@@](OC[C@H]2O[C@@H](O[C@H]3[C@H](O)[C@@H](O)[C@H](O)O[C@@H]3CO)[C@H](O)[C@@H](O)[C@H]2O)(C(=O)O)C[C@@H]1O [6′SL, 6′-sialyllactose]",,,6.5 mM,
"CC(=O)N[C@H]1[C@H](O[C@H]2[C@@H](O)[C@@H](CO)O[C@@H](O[C@H]3[C@H](O)[C@@H](O)C(O)O[C@@H]3CO)[C@@H]2O)O[C@H](CO)[C@@H](O)[C@@H]1O[C@@H]1O[C@H](CO)[C@H](O)[C@H](O)[C@H]1O (stereo partly shown) [LNT, lacto-N-tetraose]",,,4.5 mM,
"C[C@@H]1O[C@@H](O[C@H]2[C@H](O[C@H]3[C@H](O[C@@H]4O[C@@H](C)[C@@H](O)[C@@H](O)[C@@H]4O)[C@@H](O)C(O)O[C@@H]3CO)O[C@H](CO)[C@H](O)[C@@H]2O)[C@@H](O)[C@H](O)[C@@H]1O (stereo partly shown) [diFL, difucosyllactose]",No activation,,,do not activate
